{"source": "patent US20050271588A1", "about": "“Liposome targeting of matrix metalloproteinase inhibitors” (priority 2001, published 2005)", "key": {"[1]": {"target": "T1, MMP-9 (Homo sapiens, UniProt P14780)", "T1 construct": "made in house", "T1 sequence (P14780 94-707)": "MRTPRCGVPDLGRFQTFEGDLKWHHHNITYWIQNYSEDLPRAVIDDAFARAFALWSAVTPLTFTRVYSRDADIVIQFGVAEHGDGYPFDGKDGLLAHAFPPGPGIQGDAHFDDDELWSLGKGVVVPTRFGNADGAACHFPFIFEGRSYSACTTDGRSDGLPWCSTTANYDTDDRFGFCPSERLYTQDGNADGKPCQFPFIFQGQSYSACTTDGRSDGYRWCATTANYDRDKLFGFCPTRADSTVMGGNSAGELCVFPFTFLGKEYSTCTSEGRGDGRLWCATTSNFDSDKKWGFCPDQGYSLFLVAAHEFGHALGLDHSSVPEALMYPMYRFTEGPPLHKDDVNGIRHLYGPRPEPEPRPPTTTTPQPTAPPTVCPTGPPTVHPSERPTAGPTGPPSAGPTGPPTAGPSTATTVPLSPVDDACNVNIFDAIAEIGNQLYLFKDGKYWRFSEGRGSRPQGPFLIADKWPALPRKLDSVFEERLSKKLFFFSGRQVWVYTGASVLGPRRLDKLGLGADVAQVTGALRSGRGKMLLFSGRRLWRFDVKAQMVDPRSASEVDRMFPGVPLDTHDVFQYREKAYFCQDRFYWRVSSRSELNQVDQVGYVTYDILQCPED", "assay": "Gelatinase assay with fluorogenic peptide substrate", "format": "biochemical", "conditions": "100 μM EDTA, MMP-9 5 nM", "description": "The activity of MMP-9 was measured also using the fluorogenic peptide substrate MCA-Pro-Leu-Ala-Nva-Dpa-Ala-Arg (Calbiochem, San Diego, Calif., USA). More specifically, 50 ng of MMP-9 was preincubated in PBS for 30 min at RT in the absence or presence of CTT or its liposome complex. Subsequently, the fluorogenic substrate was added to a final concentration of 0.1 mM and the incubation was continued at 37° C. for 15 min, whereafter fluorescence intensities were measured with exitation at 340 nm and emission at 390 nm in a microtiter plate reader."}, "[2]": {"tested_on": "HT1080 cells", "assay": "Blocking of CTT-liposome uptake by antibodies and proteinase inhibitors", "format": "cell-based, human", "conditions": "TIMP-2 10 μg/ml, Marimastat 50 μM, EDTA 500 μM, aprotinin 1 μg/ml", "description": "We further investigated if cell surface-bound gelatinases were the receptors for the CTT-containing liposomes. Cells were washed to remove soluble forms of gelatinases, and then preincubated for 30 min with MMP inhibitors or specific antibodies before the addition of liposomes.\n(§1) We also preincubated cells with phorbol ester (TPA) (50 nM). Preincubation times varied from 15 to 75 min. Treatment of cells by phorbol ester (TPA) increases both expression and secretion of MMP-9 (Toth et al., 1997). […] M-17 inhibits the binding of MMP-9 to the substrate and this inhibition is expected to be concentration dependent. It is not known if rabbit polyclonal antibody blocks human MMP-2 (Murphy et al., 1994). Final concentrations of the indicated peptide, Adriamycin, antibodies and liposomes were 85 μM, 0.2 mM, 20 μg/ml, and 0.4 μM, respectively."}, "[3]": {"tested_on": "cells", "assay": "Effect of phorbol ester (TPA) preincubation on CTT-liposome uptake", "format": "cell-based", "conditions": "TPA 50 nM", "description": "as §1, with “1997). Results are presented as RFI=I/I0, where RFI is relative fluorescence intensity, I0 is the emission intensity for the control, 2 μM rhodamine B in LUVs without the peptides, and I is the rhodamine emission for the peptide-liposome complexes taken up by the cells.” for “1997).”"}, "[4]": {"assay": "Penetration of peptides into lipid monolayers (surface pressure)", "format": "physicochemical", "conditions": "eggPC monolayer, peptide 200 μM", "description": "Interaction of peptides with lipid monolayers. Penetration of peptides into mono-molecular lipid films was measured using magnetically stirred circular wells (subphase volume 400 μl). Surface pressure (π) was monitored with a Wilhelmy wire attached to a microbalance (μ TroughS, Kibron Inc., Helsinki, Finland) connected to a Pentium PC. Lipids were spread on the air-buffer (PBS, pH 7) interface in chloroform (approx. one mg/ml) to different initial surface pressures (π0) and were allowed to equilibrate for 15 min before the addition of the indicated peptides (4 μ1,10 mg/ml in H2O and CWL in DMSO) into the subphase. The increment in π from the initial surface pressures (π0) after the addition of peptide was complete in approximately 20 min and the difference between π0 and the value observed after binding of the peptide into the film was taken as Δπ. All measurements were performed at ambient temperature (˜+24° C.). The data are represented as Δπ vs. […] (Brockman, 1999)."}, "[5]": {"assay": "Assay for lipid mixing (liposome fusion, NBD-PE/DPPRho)", "format": "physicochemical", "conditions": "within 15 min", "description": "The extent of exposure of Trp to the aqueous phase was studied using I— as a collisional quencher (Lakowicz, 1999). The extent of quenching was calculated by using the equation: F0/F=1+k[Q]=1+kqτ0[Q] where F0 and F are Trp fluorescence intensities at 345 nm in the absence and presence of the quencher, Q, τ0 is Trp fluorescence lifetime in the absence of the quencher, k is the Stern-Volmer constant (obtained from the slope of the linear fit of the data). Fluorescence of Trp in CTT (5 μM) and its quenching were measured in the absence and presence of POPC/POPE (80:20, mol/mol) LUVs (final lipid concentration of 0.5 mM). The results were corrected for background caused by PBS and liposomes. Assay for lipid mixing. The ability of the CTT, CLP, STT, and CWL peptides to induce liposome fusion was assessed by measuring lipid mixing, as described earlier (Struck et al., 1981). In brief, NBD-PE (X=0.01) and DPPRho (X=0.01) were incorporated into liposomes (POPC/POPE, 78/20, mol/mol). Due to the spectral overlap of NBD-PE (donor) emission and DPPRho (acceptor) absorption resonance energy transfer between these dyes is highly efficient. As liposomes containing NBD-PE and DPPRho are mixed with non-labeled liposomes, fusion is observed as an increase in the emission intensity of NBD-PE due to the dilution of probes. Excitation and emission wavelengths for NBD-PE at 430 nm and 530 nm were used. All fluorescence measurements were done at 37° C."}, "[6]": {"tested_on": "U937 cells", "assay": "Uptake of liposome-encapsulated rhodamine B by U937 cells", "format": "cell-based", "conditions": "U937, fluorescence plate-reader", "description": "In another series of experiments the water-soluble fluorescent marker rhodamine B was encapsulated into liposomes and its uptake by cells was measured. Samples for rhodamine B uptake were prepared by mixing 60 μl of POPC/POPE (80/20, mol/mol, one mM) liposomes containing 10 μM rhodamine B to 300 μl of DMEM medium supplemented with 10% fetal bovine serum, Glutamax I, penicillin 100 U/ml and streptomycin 0.1 mg/ml. Peptides were then added to obtain a final concentration of […]. Ten μl (10^5 cells) of medium containing the indicated cells were combined with the LUVs. After an incubation for 15 min at 37° C. or +4° C. liposomes not bound to the cells were removed from 96-well plates by rinsing three times with cold PBS. The +4° C. temperature served as a control for non-endocytotic liposome uptake by cells (Oess and Hildt, 2000). The relative amount of rhodamine B associated with the cells was determined using microplate reader with excitation at 535 nm and emission at 595 nm.\nas §1, with “1997). Results are presented as RFI=I/I0, where RFI is relative fluorescence intensity, I0 is the emission intensity for the control, 2 μM rhodamine B in LUVs without the peptides, and I is the rhodamine emission for the peptide-liposome complexes taken up by the cells.” for “1997).”\nCell cultures and fluorescence microscopy. U937 (ECACC 85011440), HT 1080 (ECACC 85111505), and CHO (ECACC 85050302) cells were cultured in RPMI or DMEM medium supplemented with 10% fetal bovine serum, Glutamax I, penicillin (100 U/ml), and streptomycin (0.1 mg/ml). Uptake of rhodamine B containing liposomes by the cultured cells was verified by fluorescence microscopy. An inverted fluorescence microscope (Zeiss IM 35) equipped with Nikon extra long working distance objectives (20×) and (40×) were used. Samples were prepared as described for the rhodamine uptake assay, with slight modifications. Accordingly, instead of washing, U937, HT 1080, and CHO cells with the rhodamine-containing liposomes and in cell culture medium were transferred into Nunclon 48 plate wells. Excitation and emission wavelengths were selected by suitable bandpass filters (Melles-Griot) transmitting in the range 535 nm and >600 nm, respectively. Fluorescence images were viewed with a Peltier-cooled digital camera (C4742-95, Hamamatsu, Japan) connected to a computer and operated by software (Hipic 5.0) provided by the instrument manufacturer."}, "[7]": {"tested_on": "U937 cells", "assay": "Cell killing by Adriamycin-containing liposomes, EthD-1 viability assay", "format": "cell-based", "conditions": "U937, 24 h, peptide 85 μM, Adriamycin 0.4 μM", "description": "Viability assays. Peptide-liposome complexes with the encapsulated adriamycin were made as described above, yielding final concentrations of peptide, lipid, and adriamycin of 85 μM, 0.2 mM, and 0.4 μM, respectively, and were subsequently added to a ten μl (10^5 cells) sample of U937 cells. For the detection of dead cells EthD-1 was used. This fluorophore is membrane-impermeable and emits fluorescence only when bound to DNA (Papadopoulos et al., 1994). Accordingly, EthD-1 readily enters dead cells and binds to their DNA, its fluorescence intensity correlating to the amount of dead cells. EthD-1 emission was measured using microplate reader with excitation at 495 nm and emission at 635 nm. Student's t-test was used to assess statistical significance."}, "[8]": {"target": "T2, MMP-2 (Homo sapiens, UniProt P08253)", "T2 construct": "purchased Boehringer Mannheim GmbH (Germany)", "T2 sequence (P08253 110-660)": "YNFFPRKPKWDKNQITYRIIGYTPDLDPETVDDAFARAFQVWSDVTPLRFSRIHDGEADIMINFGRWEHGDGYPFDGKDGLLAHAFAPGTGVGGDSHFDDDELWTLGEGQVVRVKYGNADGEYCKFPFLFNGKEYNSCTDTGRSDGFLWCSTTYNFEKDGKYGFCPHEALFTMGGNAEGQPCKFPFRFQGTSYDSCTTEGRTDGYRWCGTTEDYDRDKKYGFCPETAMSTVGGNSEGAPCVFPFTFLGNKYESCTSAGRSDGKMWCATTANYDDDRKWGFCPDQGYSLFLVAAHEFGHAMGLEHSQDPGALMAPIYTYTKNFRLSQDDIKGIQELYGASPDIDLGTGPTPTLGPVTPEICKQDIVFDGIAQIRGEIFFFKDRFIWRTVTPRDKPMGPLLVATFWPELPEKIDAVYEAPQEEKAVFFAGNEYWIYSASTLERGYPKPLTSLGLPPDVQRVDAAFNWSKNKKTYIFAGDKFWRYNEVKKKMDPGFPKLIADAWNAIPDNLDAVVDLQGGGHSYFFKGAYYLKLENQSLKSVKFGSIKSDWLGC", "assay": "Casein zymography, inhibition of MMP-2", "format": "biochemical", "conditions": "85 μM peptide", "description": "Assay for gelatinases. Inhibition of MMP-9 and MMP-2 by the different synthetic peptides was measured using casein zymography (Halinen et al., 1996). MMP-9 was purified as described (Sorsa et al., 1997). Subsequently, MMP-2 (2.5 μg) or MMP-9 (2.5 μg) was run on a 10% SDS-PAGE containing two mg/ml casein. The gel was first washed in Triton X-100 containing buffer to remove SDS, and it was cut into five slices which were immersed into peptide (CTT, CLP, CWL or STT) containing solutions (85 μM). After incubation for 48 hrs at 37° C., the gels were stained with Coomassie blue, scanned, and the digested areas quantitated using image analysis (Global Lab Image 3.2, Data Translation Inc. and Acuity Imaging Inc., Marlboro, Mass., USA)."}}, "note": "Positions of bridges follow the written chain, without caps; N, C: chain ends. No end group written: not given here."}
{"compound": "O=C(O)CN(CCN(CC(=O)O)CC(=O)O)CC(=O)O", "note": "[EDTA, reference compound]", "values": [{"measurement": "Inhibition of MMP-9", "setting": "[1]", "value": "Complete inhibition"}]}
{"compound": "CNC(=O)[C@@H](NC(=O)[C@H](CC(C)C)[C@H](O)C(=O)NO)C(C)(C)C", "note": "[Marimastat]", "values": [{"measurement": "Inhibition of liposome transfer into cells", "setting": "[2]", "value": "approx. 50%"}]}
{"compound": "CCCCCCCCCCCCCC(=O)O[C@@H]1[C@@H](C)[C@@]2(O)[C@@H](C=C(CO)C[C@]3(O)C(=O)C(C)=C[C@@H]23)[C@H]2C(C)(C)[C@]12OC(C)=O", "note": "[TPA]", "values": [{"measurement": "Effect on uptake of CTT-liposomes", "setting": "[3]; prolonged incubation (75 min)", "value": "inhibited"}, {"measurement": "Effect on uptake of CTT-liposomes", "setting": "[3]; short exposure time (15 min)", "value": "increased"}]}
{"compound": "CLPGHWGFPSC (cysteine pairing not given here) [CTT homolog, part of EGF-7 domain in human laminin β-1 chain]", "values": [{"measurement": "Initial monolayer packing pressure above which membrane penetration was abolished", "setting": "[4]", "value": 33, "unit": "mN/m"}, {"measurement": "Lipid mixing / vesicle fusion (NBD-PE emission)", "setting": "[5]", "value": "lack of lipid mixing"}, {"measurement": "Enhancement of uptake of liposome-encapsulated rhodamine vs liposomes lacking peptide", "setting": "[6]", "value": "Only minor effect"}, {"measurement": "Increase in killing of cells vs Adriamycin liposomes without peptide", "setting": "[7]", "value": 1.3, "unit": "fold"}]}
{"compound": "Cys-Trp-Leu-Thr-Phe-Thr-His-Gly-Thr-Cys (CWLTFTHGTC; disulfide 1-10) [scrambled cyclic peptide, reference compound]", "values": [{"measurement": "Enhancement of uptake of liposome-encapsulated rhodamine vs liposomes lacking peptide", "setting": "[6]", "value": "inefficient"}, {"measurement": "Increase in killing of cells vs Adriamycin liposomes without peptide", "setting": "[7]", "value": "not"}]}
{"compound": "STTHWGFTLS", "values": [{"measurement": "Inhibition of MMP-2 activity", "setting": "[8]", "value": "approx. 30%"}, {"measurement": "Initial monolayer packing pressure above which membrane penetration was abolished", "setting": "[4]", "value": 31, "unit": "mN/m"}, {"measurement": "Lipid mixing / vesicle fusion (NBD-PE emission)", "setting": "[5]", "value": "lack of lipid mixing"}, {"measurement": "Enhancement of uptake of liposome-encapsulated rhodamine vs liposomes lacking peptide", "setting": "[6]", "value": "Only minor effect"}, {"measurement": "Increase in killing of cells vs Adriamycin liposomes without peptide", "setting": "[7]", "value": 1.7, "unit": "fold"}]}
{"compound": "aprotinin", "values": [{"measurement": "Inhibition of liposome transfer into cells", "setting": "[2]", "value": "no significant inhibitory effect"}]}
